# Legend:
# [1] = target: Serine/threonine-protein kinase PAK 4 (Homo sapiens, UniProt O96013); experiment: Selectivity interaction (KinomeScan (DiscoverX)) EUB0001079a PAK4; conditions: at 1 µM
# [2] = target: Rho-associated protein kinase 1 (Homo sapiens) (UniProt Q13464); experiment: Selectivity interaction (KinomeScan (DiscoverX)) EUB0001079a ROCK1; conditions: at 1 µM
# [3] = target: T1, 3-phosphoinositide-dependent protein kinase 1 (Homo sapiens) (UniProt O15530); experiment: Selectivity interaction (KinomeScan (DiscoverX)) EUB0000092b PDPK1; conditions: at 10 µM
# T1 sequence (whole entry): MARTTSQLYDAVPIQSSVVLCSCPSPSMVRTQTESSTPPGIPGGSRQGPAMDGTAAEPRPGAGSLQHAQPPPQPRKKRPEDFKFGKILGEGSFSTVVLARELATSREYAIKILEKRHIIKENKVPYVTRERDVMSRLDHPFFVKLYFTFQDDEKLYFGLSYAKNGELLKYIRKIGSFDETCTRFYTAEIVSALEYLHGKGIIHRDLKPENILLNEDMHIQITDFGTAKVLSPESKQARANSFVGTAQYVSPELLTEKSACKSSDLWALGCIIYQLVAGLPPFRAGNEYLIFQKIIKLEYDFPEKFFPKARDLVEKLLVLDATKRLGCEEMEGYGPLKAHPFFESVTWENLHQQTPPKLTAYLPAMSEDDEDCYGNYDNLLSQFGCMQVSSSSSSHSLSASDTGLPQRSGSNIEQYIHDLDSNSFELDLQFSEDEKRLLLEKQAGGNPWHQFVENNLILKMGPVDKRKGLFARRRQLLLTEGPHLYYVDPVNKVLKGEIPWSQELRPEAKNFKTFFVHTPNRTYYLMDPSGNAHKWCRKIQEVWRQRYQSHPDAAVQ
# [4] = target: T2, Serine/threonine-protein kinase Nek1 (Homo sapiens) (UniProt Q96PY6); experiment: Selectivity interaction (KinomeScan (DiscoverX)) EUB0000607a NEK1; conditions: at 10 µM
# T2 sequence (whole entry): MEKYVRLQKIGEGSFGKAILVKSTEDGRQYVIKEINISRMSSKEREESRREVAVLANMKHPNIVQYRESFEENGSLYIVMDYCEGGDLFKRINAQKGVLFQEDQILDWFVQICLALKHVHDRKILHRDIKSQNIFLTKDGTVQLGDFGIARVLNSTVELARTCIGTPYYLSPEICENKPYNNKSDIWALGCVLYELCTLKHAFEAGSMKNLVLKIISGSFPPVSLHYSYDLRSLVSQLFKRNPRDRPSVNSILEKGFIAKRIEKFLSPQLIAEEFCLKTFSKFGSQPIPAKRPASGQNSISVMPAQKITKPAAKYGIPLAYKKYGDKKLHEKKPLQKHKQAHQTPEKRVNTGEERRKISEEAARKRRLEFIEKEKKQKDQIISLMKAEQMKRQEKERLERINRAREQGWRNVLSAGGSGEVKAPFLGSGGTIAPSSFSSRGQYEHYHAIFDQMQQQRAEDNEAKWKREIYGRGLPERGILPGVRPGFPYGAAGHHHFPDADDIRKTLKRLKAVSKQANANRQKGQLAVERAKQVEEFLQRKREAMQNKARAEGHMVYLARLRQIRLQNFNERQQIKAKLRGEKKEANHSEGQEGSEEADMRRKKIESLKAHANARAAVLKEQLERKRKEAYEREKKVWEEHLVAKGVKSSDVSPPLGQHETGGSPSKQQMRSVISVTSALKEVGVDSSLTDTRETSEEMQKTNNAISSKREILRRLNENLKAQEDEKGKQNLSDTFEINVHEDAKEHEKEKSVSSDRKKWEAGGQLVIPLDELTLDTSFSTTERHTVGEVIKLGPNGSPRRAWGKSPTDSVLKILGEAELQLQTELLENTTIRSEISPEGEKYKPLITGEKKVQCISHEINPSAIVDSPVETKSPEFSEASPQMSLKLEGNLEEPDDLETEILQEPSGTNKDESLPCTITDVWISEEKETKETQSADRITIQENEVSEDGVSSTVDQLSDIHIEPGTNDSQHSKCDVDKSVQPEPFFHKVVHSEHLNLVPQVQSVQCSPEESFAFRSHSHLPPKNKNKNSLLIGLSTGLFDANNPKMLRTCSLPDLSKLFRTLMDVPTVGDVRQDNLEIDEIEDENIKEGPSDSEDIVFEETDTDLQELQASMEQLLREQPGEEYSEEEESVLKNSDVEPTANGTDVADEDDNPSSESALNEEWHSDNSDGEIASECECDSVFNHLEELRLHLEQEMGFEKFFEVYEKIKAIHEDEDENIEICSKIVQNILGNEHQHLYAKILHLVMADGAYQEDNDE
# Sequence of Serine/threonine-protein kinase PAK 4 (O96013 whole entry, looked up): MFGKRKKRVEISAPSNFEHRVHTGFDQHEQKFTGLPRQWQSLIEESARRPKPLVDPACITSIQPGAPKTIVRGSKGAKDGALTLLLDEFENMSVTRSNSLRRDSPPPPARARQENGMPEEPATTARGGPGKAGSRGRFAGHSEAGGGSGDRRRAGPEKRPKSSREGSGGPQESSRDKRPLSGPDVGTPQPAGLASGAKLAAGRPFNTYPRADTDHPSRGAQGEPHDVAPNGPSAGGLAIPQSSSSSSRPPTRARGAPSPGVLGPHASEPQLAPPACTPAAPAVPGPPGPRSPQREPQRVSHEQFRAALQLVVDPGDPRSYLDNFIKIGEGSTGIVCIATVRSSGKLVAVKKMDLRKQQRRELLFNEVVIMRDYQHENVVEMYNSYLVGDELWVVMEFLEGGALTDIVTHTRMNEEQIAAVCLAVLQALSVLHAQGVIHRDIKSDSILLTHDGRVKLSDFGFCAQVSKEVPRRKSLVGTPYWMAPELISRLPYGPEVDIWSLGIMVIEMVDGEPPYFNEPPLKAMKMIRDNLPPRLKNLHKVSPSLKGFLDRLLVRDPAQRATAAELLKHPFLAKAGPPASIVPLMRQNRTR
# Sequence of Rho-associated protein kinase 1 (Homo sapiens) (Q13464 2-1354 limits assumed): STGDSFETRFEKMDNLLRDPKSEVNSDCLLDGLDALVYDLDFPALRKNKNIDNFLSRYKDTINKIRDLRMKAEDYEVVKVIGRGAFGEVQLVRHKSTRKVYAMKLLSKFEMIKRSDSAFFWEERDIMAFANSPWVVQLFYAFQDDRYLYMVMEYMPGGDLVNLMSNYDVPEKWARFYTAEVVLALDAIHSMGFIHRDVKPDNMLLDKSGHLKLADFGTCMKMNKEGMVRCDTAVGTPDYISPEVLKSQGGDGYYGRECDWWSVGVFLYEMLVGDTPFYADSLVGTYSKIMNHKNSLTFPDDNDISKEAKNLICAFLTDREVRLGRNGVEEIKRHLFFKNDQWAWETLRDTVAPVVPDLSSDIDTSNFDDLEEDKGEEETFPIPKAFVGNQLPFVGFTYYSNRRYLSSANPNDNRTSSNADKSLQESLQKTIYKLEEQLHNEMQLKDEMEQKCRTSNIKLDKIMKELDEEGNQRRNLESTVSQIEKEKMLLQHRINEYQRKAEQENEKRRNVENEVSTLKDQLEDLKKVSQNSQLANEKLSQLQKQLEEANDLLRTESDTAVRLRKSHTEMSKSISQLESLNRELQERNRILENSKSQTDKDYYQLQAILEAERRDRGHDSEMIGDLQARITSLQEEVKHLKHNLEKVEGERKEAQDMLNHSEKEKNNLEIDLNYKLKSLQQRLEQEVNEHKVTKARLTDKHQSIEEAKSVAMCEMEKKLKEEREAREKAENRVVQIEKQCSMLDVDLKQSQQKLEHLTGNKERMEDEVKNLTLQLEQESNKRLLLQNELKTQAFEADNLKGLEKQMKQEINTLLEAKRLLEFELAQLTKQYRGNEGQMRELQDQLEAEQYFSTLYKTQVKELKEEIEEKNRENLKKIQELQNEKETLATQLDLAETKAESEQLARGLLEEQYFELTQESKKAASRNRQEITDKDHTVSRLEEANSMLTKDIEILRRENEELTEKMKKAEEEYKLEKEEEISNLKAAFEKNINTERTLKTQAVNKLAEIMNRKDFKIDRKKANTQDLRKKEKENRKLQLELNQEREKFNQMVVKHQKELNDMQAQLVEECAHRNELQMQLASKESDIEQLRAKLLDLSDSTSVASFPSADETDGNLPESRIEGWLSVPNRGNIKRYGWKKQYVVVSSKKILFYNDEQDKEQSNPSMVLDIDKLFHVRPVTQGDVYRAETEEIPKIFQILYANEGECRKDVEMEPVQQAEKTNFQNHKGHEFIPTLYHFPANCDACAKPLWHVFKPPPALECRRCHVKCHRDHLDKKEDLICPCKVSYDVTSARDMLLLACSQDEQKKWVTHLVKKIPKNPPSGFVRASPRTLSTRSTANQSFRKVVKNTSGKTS
smiles,measurement,setting,value
Nc1cnc(N2CCc3cc(S(=O)(=O)Nc4c(F)cc(Cl)cc4F)cc(N4CCCC4=O)c32)nc1 [TP-020n],% of control,[1],89%
same,% of control,[2],96%
CCC(=O)N1CCN(c2ccc(-n3c(=O)ccc4cnc5ccc(-c6cnc7ccccc7c6)cc5c43)cc2C(F)(F)F)CC1,% of control,[3],100%
CNC(=O)Nc1ccc(-c2nc(N3CC4CCC(C3)O4)c3cnn(C4CCC5(CC4)OCCO5)c3n2)cc1,% of control,[4],100%
